Test results reported in patent US20140121231A1, “PYRANOPYRIDONE INHIBITORS OF TANKYRASE” (Hoffmann-La Roche, Inc., priority 2012, published 2014).
Counter-ions that a name gives are not always drawn.

Assays:
[1] = molecular target: T1, Tankyrase 1 (TNKS1) (Homo sapiens, UniProt O95271); assay: μHTS-TNKS-IWR2 TR-FRET Binding Assay (Example 71), TNKS1
T1 construct: His6-TNKS1, MW=28.2 KDa (construct: 1088-1327, 1266M)
Protocol: (§1) μHTS-TNKS-IWR2 TR-FRET Binding Assay (10 μL/well in BD1536-well plate, a single point)
(§2) Assay buffer 1a (AB1a) for TNKS dilution: 50 mM Tris, pH 7.4, 100 mM sodium chloride solution, 1 mM magnesium chloride solution, 1 mM DL-dithiothreitol solution, 0.2 mg/mL bovine serum albumin solution, 0.025% NP-40. Assay buffer 1b (AB 1b) for Biotin-IWR2 dilution: 50 mM Tris, pH 7.4, 100 mM sodium chloride solution, 1 mM magnesium chloride solution, 1 mM DL-dithiothreitol solution, 0.2 mg/mL bovine serum albumin solution, 0.05% NP-40 Assay buffer 1c (AB 1c) for compound dilution: 50 mM Tris, pH 7.4, 100 mM sodium chloride solution, 1 mM magnesium chloride solution, 1 mM DL-dithiothreitol solution, 0.2 mg/mL bovine serum albumin solution Assay buffer 2 (AB2) for Eu/APC: 50 mM Tris, pH 7.4, 100 mM sodium chloride solution, 1 mM magnesium chloride solution, 0.2 mg/mL bovine serum albumin solution
(§3) Transfer 3 μL/well of above solution (solution 1,2,3) to an empty assay plate (BD1536-well plate) as follows: TOTAL and cpd wells: Solution 1 (Biotin-IWR2): BLANK wells: Solution 2 (No Biotin-IWR2): POSITIVE CONTROL wells: Solution 3 (Biotin-IWR2XAV939) Transfer 3 μL/well of the above diluted compound solutions or compound dilution buffer to the above assay plate. Add 2 μL/well of 300 nM TNKS stock solution (4) to every well in the above assay plate. Centrifuge the assay plate at 2100 rpm for 2 min. Incubate the assay plate at 26° C. for 30 minutes. Add 2 μL/well 3.5 nMEu/50 nM APC solution (5) to every well in the above assay plate. Centrifuge the assay plate at 2100 rpm for 2 min. Incubate the assay plate at 26° C. for 60 min.

[2] = molecular target: T2, tankyrase 2 (His6-TNKS2) (Homo sapiens, UniProt Q9H2K2); assay: μHTS-TNKS-IWR2 TR-FRET Binding Assay (Example 71), TNKS2; conditions: footnote 1: Tankyrase 1 and 2 inhibition assay in Example 71 (TR-FRET)
T2 construct: His6-tankyrase 2 (construct: 934-1166) (His6-TNKS2)
Protocol: as §1
Biotin-4-((1S,2R,6S,7R)-3,5-Dioxo-4-aza-tricyclo[5.2.1.0*2,6*]dec-8-en-4-yl)-N-(4-methyl-quinolin-8-yl)-benzamide (Biotin-IWR2): 10 mM Biotin-IWR2 stock in DMSO, stored at −20° C. Positive control: 10 mM 2-(4-Trifluoromethyl-phenyl)-3,5,7,8-tetrahydro-thiopyrano[4,3-d]pyrimidin-4-one (XAV939) in DMSO, stored at −20° C.
as §2, §3

[3] = molecular target: T3, PARP1 (His6-PARP1, full length) (Homo sapiens, UniProt P09874); assay: TR-FRET Binding Assay (Example 71), PARP1; conditions: TR-FRET assay of Example 71 with His6-PARP1
T3 construct: His6-PARP1 (full length) can be substituted for His6-TNKS 1
Protocol: as §1
Tankyrase 1 (TNKS1): 184.3 μM=5.2 mg/mL His6-TNKS1, MW=28.2 KDa (construct: 1088-1327, 1266M) in 20 mM Tris pH 8, 150 mM NaCl, 10% glycerol, and 0.5 mM TCEP. Alternatively, His6-tankyrase 2 (construct: 934-1166) (His6-TNKS2) or His6-PARP1 (full length) can be substituted for His6-TNKS 1.
as §2
Prepare Biotinylated IWR2 stock solution (3.33× stock) for TOTL and compound wells: 200 nM Biotin-IWR2 in 5% DMSO/AB1b buffer
Prepare BLANK well stock solution: 5% DMSO/AB1b buffer Prepare POSITIVE CONTROL well stock solution (3.33× stock): 200 nM XAV939 in 200 nM Biotin-IWR2/5% DMSO/AB1b buffer Prepare TNKS1 stock solution (5× stock): 300 nM TNKS in AB1a buffer. (Alternatively, use TNKS2 or PARP1 stock solutions.) Prepare Eu/APC stock solution (5× stock): 3.5 nM Eu-SA/50 nM APC-His6Ab in AB2 buffer.
Add 25 μL/well 1.5% DMSO/AB1c buffer in each compound well to the compound concentration at 74 μM in 8.8% DMSO/AB1c buffer or in the 2 μL DMSO CONTROL wells (BLANK, TOTAL and POSITIVE wells) in the compound plate. Transfer 3 μL/well of above solution (solution 1,2,3) to an empty assay plate (BD1536-well plate) as follows: TOTAL and cpd wells: Solution 1 (Biotin-IWR2): BLANK wells: Solution 2 (No Biotin-IWR2): POSITIVE CONTROL wells: Solution 3 (Biotin-IWR2XAV939) Transfer 3 μL/well of the above diluted compound solutions or compound dilution buffer to the above assay plate. Add 2 μL/well of 300 nM TNKS stock solution (4) to every well in the above assay plate. Centrifuge the assay plate at 2100 rpm for 2 min. Incubate the assay plate at 26° C. for 30 minutes. Add 2 μL/well 3.5 nMEu/50 nM APC solution (5) to every well in the above assay plate. Centrifuge the assay plate at 2100 rpm for 2 min. Incubate the assay plate at 26° C. for 60 min. Read the assay plate immediately at excitation wavelength of 330 nm and emission wavelength of […] in time resolved fluorescence mode.
. Representative compound data for the PARP1 assay is in TABLE 2 (below) Values are in μM.

T1 sequence (O95271 1088-1327): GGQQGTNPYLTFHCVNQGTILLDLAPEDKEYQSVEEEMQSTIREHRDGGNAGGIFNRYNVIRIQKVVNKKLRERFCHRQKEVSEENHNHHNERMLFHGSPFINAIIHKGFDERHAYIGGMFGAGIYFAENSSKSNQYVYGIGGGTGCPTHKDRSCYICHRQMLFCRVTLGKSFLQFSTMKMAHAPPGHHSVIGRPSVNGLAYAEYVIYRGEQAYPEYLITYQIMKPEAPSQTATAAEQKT
T2 sequence (Q9H2K2 934-1166): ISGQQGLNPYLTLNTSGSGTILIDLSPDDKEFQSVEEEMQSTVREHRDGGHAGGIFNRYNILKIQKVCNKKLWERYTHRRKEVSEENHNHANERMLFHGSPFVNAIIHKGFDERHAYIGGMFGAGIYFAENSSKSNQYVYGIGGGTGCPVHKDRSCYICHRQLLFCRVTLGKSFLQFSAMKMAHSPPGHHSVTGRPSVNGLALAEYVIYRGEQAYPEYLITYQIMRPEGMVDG
T3 sequence (P09874 whole entry, species assumed): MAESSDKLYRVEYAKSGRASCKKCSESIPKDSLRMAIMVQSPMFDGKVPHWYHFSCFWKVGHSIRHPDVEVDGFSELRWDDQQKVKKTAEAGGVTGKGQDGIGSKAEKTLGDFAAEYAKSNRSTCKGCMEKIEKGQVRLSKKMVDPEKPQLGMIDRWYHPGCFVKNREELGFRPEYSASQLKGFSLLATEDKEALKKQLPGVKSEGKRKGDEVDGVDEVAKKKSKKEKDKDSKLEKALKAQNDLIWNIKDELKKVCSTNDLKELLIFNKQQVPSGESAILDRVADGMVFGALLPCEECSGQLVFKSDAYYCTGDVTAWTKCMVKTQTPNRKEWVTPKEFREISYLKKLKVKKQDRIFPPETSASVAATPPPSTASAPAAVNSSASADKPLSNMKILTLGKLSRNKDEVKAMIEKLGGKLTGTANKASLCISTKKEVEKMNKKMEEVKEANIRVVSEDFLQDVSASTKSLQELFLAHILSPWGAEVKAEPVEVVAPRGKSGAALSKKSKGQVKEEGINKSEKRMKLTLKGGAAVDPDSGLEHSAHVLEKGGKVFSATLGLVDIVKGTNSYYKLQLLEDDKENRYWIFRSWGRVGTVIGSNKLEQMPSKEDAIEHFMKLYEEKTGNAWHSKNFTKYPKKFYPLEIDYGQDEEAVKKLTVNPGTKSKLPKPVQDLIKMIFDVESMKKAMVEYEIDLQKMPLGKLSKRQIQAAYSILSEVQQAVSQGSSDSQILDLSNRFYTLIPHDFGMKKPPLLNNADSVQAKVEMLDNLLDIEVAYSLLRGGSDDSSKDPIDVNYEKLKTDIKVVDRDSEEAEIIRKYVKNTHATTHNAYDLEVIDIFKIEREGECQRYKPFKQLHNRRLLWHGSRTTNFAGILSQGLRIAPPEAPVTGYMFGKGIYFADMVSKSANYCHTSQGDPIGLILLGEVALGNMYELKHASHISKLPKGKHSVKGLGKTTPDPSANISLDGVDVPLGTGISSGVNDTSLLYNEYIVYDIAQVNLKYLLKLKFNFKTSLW

Row | IC50 [1] [nM] | IC50 [2] [nM] | IC50 [3] [nM] | SMILES
1 | 133 | 1500 | > 50000 | CC(C)(C)C1Cc2[nH]c(=O)c3ccc(C#N)cc3c2CO1 (racemic) [Compound I-56, rac-2-tert-Butyl-9-oxo-1,4,9,10-tetrahydro-2H-3-oxa-10-aza-phenanthrene-6-carbonitrile]
2 | 88.6 | 243 | 2030 | CC(C)C1Cc2[nH]c(=O)c3ccc(C(N)=O)cc3c2CO1 (racemic) [Compound I-23, rac-2-Isopropyl-9-oxo-1,4,9,10-tetrahydro-2H-3-oxa-10-aza-phenanthrene-6-carboxylic acid amide]
3 | 33.6 | 34.4 | 280 | O=c1[nH]c2c(c3ccccc13)COC(C1CCOC1)C2 (mixture of isomers) [Compound I-59, 2-(Tetrahydro-furan-3-yl)-1,2,4,10-tetrahydro-3-oxa-10-aza-phenanthren-9-one]
4 | 48.2 | 55.4 | 98.7 | CS(=O)(=O)N1CCC(C2Cc3[nH]c(=O)c4ccccc4c3CO2)CC1 (racemic) [Compound I-26, rac-2-(1-Methanesulfonyl-piperidin-4-yl)-1,2,4,10-tetrahydro-3-oxa-10-aza-phenanthren-9-one]
5 | 67.2 | 113 | 126 | CC(C)(COCc1ccccc1)C1Cc2[nH]c(=O)c3ccccc3c2CO1 (racemic) [Compound I-29, rac-2-(2-Benzyloxy-1,1-dimethyl-ethyl)-1,2,4,10-tetrahydro-3-oxa-10-aza-phenanthren-9-one]
6 | 21.2 | 26 | 46.9 | Cc1cccc2c(=O)[nH]c3c(c12)COC(C(C)(C)C)C3 (racemic) [Compound I-41, rac-2-tert-Butyl-5-methyl-1,2,4,10-tetrahydro-3-oxa-10-aza-phenanthren-9-one]
7 | 35.6 | 44.2 | 104 | O=C(C1CCOCC1)N1CCC(C2Cc3[nH]c(=O)c4ccccc4c3CO2)CC1 (racemic) [Compound I-50, rac-2-[1-(Tetrahydro-pyran-4-carbonyl)-piperidin-4-yl]-1,2,4,10-tetrahydro-3-oxa-10-aza-phenanthren-9-one]
8 | 1100 | 13900 | > 50000 | CC(C)(O)c1ccc2c(=O)[nH]c3c(c2c1)COC(C(C)(C)C)C3 (racemic) [Compound I-53, rac-2-tert-Butyl-6-(1-hydroxy-1-methyl-ethyl)-1,2,4,10-tetrahydro-3-oxa-10-aza-phenanthren-9-one]
9 | 42.2 | 65.6 | 67.3 | O=C(C1CC1)N1CCC(C2Cc3[nH]c(=O)c4ccccc4c3CO2)C1 (stereo not drawn) [Compound I-44, 2-(1-Cyclopropanecarbonyl-pyrrolidin-3-yl)-1,2,4,10-tetrahydro-3-oxa-10-aza-phenanthren-9-one]
10 | 17.5 | 21 | 25.9 | Cc1cccc2c(=O)[nH]c3c(c12)COC(C1CCN(C(=O)C2(C)CC2)CC1)C3 (racemic) [Compound I-61, rac-5-Methyl-2-[1-(1-methyl-cyclopropanecarbonyl)-piperidin-4-yl]-1,2,4,10-tetrahydro-3-oxa-10-aza-phenanthren-9-one]
11 | 49.9 | 67.4 | 104 | CC(=O)N1CCC(C2Cc3[nH]c(=O)c4ccccc4c3CO2)C1 (stereo not drawn) [Compound I-37, 2-(1-Acetyl-pyrrolidin-3-yl)-1,2,4,10-tetrahydro-3-oxa-10-aza-phenanthren-9-one]
12 | 30.8 | 40.5 | 81.8 | CC(C)OC(=O)N1CCC(C2Cc3[nH]c(=O)c4ccccc4c3CO2)CC1 (racemic) [Compound I-32, rac-4-(9-Oxo-1,4,9,10-tetrahydro-2H-3-oxa-10-aza-phenanthren-2-yl)-piperidine-1-carboxylic acid isopropyl ester]
13 | 56.8 | 88.3 | > 50000 | CCC(C)C1Cc2[nH]c(=O)c3ccccc3c2CO1 (stereo not drawn) [Compound I-18, 2-sec-Butyl-1,2,4,10-tetrahydro-3-oxa-10-aza-phenanthren-9-one]
14 | 33.2 | 44.3 | 87.1 | CC1(C(=O)N2CCC(C3Cc4[nH]c(=O)c5ccccc5c4CO3)CC2)CC1 (racemic) [Compound I-46, rac-2-[1-(1-Methyl-cyclopropanecarbonyl)-piperidin-4-yl]-1,2,4,10-tetrahydro-3-oxa-10-aza-phenanthren-9-one]
15 | 32.6 | 35.5 | 222 | CC(C)(C)C1Cc2[nH]c(=O)c3sccc3c2CO1 (racemic) [Compound I-40, rac-7-tert-Butyl-5,6,7,9-tetrahydro-8-oxa-3-thia-5-aza-cyclopenta[a]naphthalen-4-one]
16 | 32 | 36.7 | 44.1 | Cc1cccc2c(=O)[nH]c3c(c12)COC(C(C)(C)O)C3 (racemic) [Compound I-64, rac-2-(1-Hydroxy-1-methyl-ethyl)-5-methyl-1,2,4,10-tetrahydro-3-oxa-10-aza-phenanthren-9-one]
17 | 44 | 73.4 | 58.2 | CC(C)C1Cc2[nH]c(=O)c3cc(Cl)ccc3c2CO1 (racemic) [Compound I-6, rac-7-Chloro-2-isopropyl-1,2,4,10-tetrahydro-3-oxa-10-aza-phenanthren-9-one]
18 | 88.8 | 109 | > 50000 | O=c1[nH]c2c(c3ccccc13)COC(C1CCNCC1)C2 (racemic) [Compound I-22, rac-2-Piperidin-4-yl-1,2,4,10-tetrahydro-3-oxa-10-aza-phenanthren-9-one, trifluoroacetate]
19 | 34.6 | 55.4 | 437 | CC(C)(C)C1Cc2[nH]c(=O)c3cccnc3c2CO1 (racemic) [Compound I-48, rac-2-tert-Butyl-1,2,4,10-tetrahydro-3-oxa-5,10-diaza-phenanthren-9-one]
20 | 64.7 | 86.7 | 78.3 | CC1(C(=O)N2CCC(C3Cc4[nH]c(=O)c5ccccc5c4CO3)C2)CC1 (stereo not drawn) [Compound I-45, 2-[1-(1-Methyl-cyclopropanecarbonyl)-pyrrolidin-3-yl]-1,2,4,10-tetrahydro-3-oxa-10-aza-phenanthren-9-one]
